This experiment relates to corticospinal tract axons. The experiment can be described thus: Analysis of axon swellings in spinal cords of EAE mice. The experiment is classed as in vivo, mouse. As to conditions: EAE mice treated during the chronic phase, FIG. 7A. As for the experimental part:
A: Histological analysis of corticospinal tract axons in spinal cords of EAE mice treated during the chronic phase of the disease.
EAE experiments were performed by immunizing YFP-H mice, that express yellow fluorescent protein in corticospinal neurons, with MOG35-55. Mice were treated with IL-4 or PBS as described above. At the last treatment day, the mice were sacrificed with an overdose of anaesthesia and transcardially perfused with 4% paraformaldehyde. Spinal cords were dissected and further processed for cryosectioning. YFP-labelled corticospinal tract axons were photographed using the Keyence BZ-9000 microscope. For quantification of axon swellings, thresholds were set in ImageJ so that stained pixels were highlighted. Thresholded swellings were counted using the ImageJ plug-in “particle analysis”.

For the sequence “RARSEIIGIGSKSIMQMDY (listed as Mus musculus) [Link4]”, the “number of axon swellings” value is “significantly reduced”.

The record behind these values is patent US20200377568A1, “Novel IL-4-/IL-13-derived peptide compounds for the treatment or prevention of neurodegenerative or neuroinflammatory diseases” (Universitätsmedizin der Johannes Gutenberg-Universität Mainz, priority 2018, published 2020).
